# Measurements from ChEMBL document CHEMBL3272143, “Synthesis of heteroaromatic potential beta-adrenergic antagonists by the glycidol route” (1978).
# Key:
# Format in all cases: functional
# [1] = tested on: Canis familiaris; assay: Inhibition of isoproterenol-induced decrease in diastolic blood pressure in bilaterally vagotomized open chest mongrel dog model at 0.42 mg/kg, iv administered 10 to 20 mins prior to and following isoproterenol challenge; conditions: Canis lupus familiaris, Artery
# [2] = tested on: Canis familiaris; assay: Inhibition of isoproterenol-induced increase in heart rate in bilaterally vagotomized open chest mongrel dog model at 1.42 mg/kg, iv administered 10 to 20 mins prior to and following isoproterenol challenge; conditions: Canis lupus familiaris
# [3] = tested on: Canis familiaris; assay: Inhibition of isoproterenol-induced decrease in diastolic blood pressure in iv dosed bilaterally vagotomized open chest mongrel dog model administered 10 to 20 mins prior to and following isoproterenol challenge; conditions: Canis lupus familiaris, Artery
# [4] = tested on: Canis familiaris; assay: Inhibition of isoproterenol-induced decrease in diastolic blood pressure in bilaterally vagotomized open chest mongrel dog model at 1.42 mg/kg, iv administered 10 to 20 mins prior to and following isoproterenol challenge; conditions: Canis lupus familiaris, Artery
# [5] = tested on: Canis familiaris; assay: Inhibition of isoproterenol-induced decrease in diastolic blood pressure in bilaterally vagotomized open chest mongrel dog model at 0.1 mg/kg, iv administered 10 to 20 mins prior to and following isoproterenol challenge; conditions: Canis lupus familiaris, Artery
# [6] = tested on: Canis familiaris; assay: Inhibition of isoproterenol-induced increase in heart rate in bilaterally vagotomized open chest mongrel dog model at 0.42 mg/kg, iv administered 10 to 20 mins prior to and following isoproterenol challenge; conditions: Canis lupus familiaris
# [7] = tested on: Canis familiaris; assay: Inhibition of isoproterenol-induced increase in heart rate in bilaterally vagotomized open chest mongrel dog model at 14.58 mg/kg, iv administered 10 to 20 mins prior to and following isoproterenol challenge; conditions: Canis lupus familiaris
# [8] = tested on: Canis familiaris; assay: Inhibition of isoproterenol-induced increase in heart rate in bilaterally vagotomized open chest mongrel dog model at 0.1 mg/kg, iv administered 10 to 20 mins prior to and following isoproterenol challenge; conditions: Canis lupus familiaris
# [9] = tested on: Canis familiaris; assay: Inhibition of isoproterenol-induced increase in heart rate in bilaterally vagotomized open chest mongrel dog model at 4.58 mg/kg, iv administered 10 to 20 mins prior to and following isoproterenol challenge; conditions: Canis lupus familiaris
# [10] = tested on: Canis familiaris; assay: Inhibition of isoproterenol-induced increase in heart rate in iv dosed bilaterally vagotomized open chest mongrel dog model administered 10 to 20 mins prior to and following isoproterenol challenge; conditions: Canis lupus familiaris
# [11] = tested on: Canis familiaris; assay: Inhibition of isoproterenol-induced decrease in diastolic blood pressure in bilaterally vagotomized open chest mongrel dog model at 14.58 mg/kg, iv administered 10 to 20 mins prior to and following isoproterenol challenge; conditions: Canis lupus familiaris, Artery
# [12] = tested on: Canis familiaris; assay: Inhibition of isoproterenol-induced decrease in diastolic blood pressure in bilaterally vagotomized open chest mongrel dog model at 4.58 mg/kg, iv administered 10 to 20 mins prior to and following isoproterenol challenge; conditions: Canis lupus familiaris, Artery
# [13] = tested on: Canis familiaris; assay: Inhibition of isoproterenol-induced increase in heart rate in bilaterally vagotomized open chest mongrel dog model at 0.45 mg/kg, iv administered 10 to 20 mins prior to and following isoproterenol challenge; conditions: Canis lupus familiaris
# [14] = tested on: Canis familiaris; assay: Inhibition of isoproterenol-induced decrease in diastolic blood pressure in bilaterally vagotomized open chest mongrel dog model at 4.61 mg/kg, iv administered 10 to 20 mins prior to and following isoproterenol challenge; conditions: Canis lupus familiaris, Artery
# [15] = tested on: Canis familiaris; assay: Inhibition of isoproterenol-induced increase in heart rate in bilaterally vagotomized open chest mongrel dog model at 0.13 mg/kg, iv administered 10 to 20 mins prior to and following isoproterenol challenge; conditions: Canis lupus familiaris
# [16] = tested on: Canis familiaris; assay: Inhibition of isoproterenol-induced increase in heart rate in bilaterally vagotomized open chest mongrel dog model at 4.61 mg/kg, iv administered 10 to 20 mins prior to and following isoproterenol challenge; conditions: Canis lupus familiaris
# [17] = tested on: Canis familiaris; assay: Inhibition of isoproterenol-induced decrease in diastolic blood pressure in bilaterally vagotomized open chest mongrel dog model at 0.45 mg/kg, iv administered 10 to 20 mins prior to and following isoproterenol challenge; conditions: Canis lupus familiaris, Artery
# [18] = tested on: Canis familiaris; assay: Inhibition of isoproterenol-induced decrease in diastolic blood pressure in bilaterally vagotomized open chest mongrel dog model at 1.45 mg/kg, iv administered 10 to 20 mins prior to and following isoproterenol challenge; conditions: Canis lupus familiaris, Artery
# [19] = tested on: Canis familiaris; assay: Inhibition of isoproterenol-induced decrease in diastolic blood pressure in bilaterally vagotomized open chest mongrel dog model at 0.13 mg/kg, iv administered 10 to 20 mins prior to and following isoproterenol challenge; conditions: Canis lupus familiaris, Artery
# [20] = tested on: Canis familiaris; assay: Inhibition of isoproterenol-induced decrease in diastolic blood pressure in bilaterally vagotomized open chest mongrel dog model at 0.03 mg/kg, iv administered 10 to 20 mins prior to and following isoproterenol challenge; conditions: Canis lupus familiaris, Artery
# [21] = tested on: Canis familiaris; assay: Inhibition of isoproterenol-induced increase in heart rate in bilaterally vagotomized open chest mongrel dog model at 1.45 mg/kg, iv administered 10 to 20 mins prior to and following isoproterenol challenge; conditions: Canis lupus familiaris
# [22] = tested on: Canis familiaris; assay: Inhibition of isoproterenol-induced increase in heart rate in bilaterally vagotomized open chest mongrel dog model at 0.03 mg/kg, iv administered 10 to 20 mins prior to and following isoproterenol challenge; conditions: Canis lupus familiaris
Structure (SMILES),inhibition in vivo at 0.42 mg/kg [1],inhibition in vivo at 1.42 mg/kg [2],ED50 [3],inhibition in vivo at 1.42 mg/kg [4],inhibition in vivo at 0.1 mg/kg [5],inhibition in vivo at 0.42 mg/kg [6],inhibition in vivo at 14.58 mg/kg [7],inhibition in vivo at 0.1 mg/kg [8],inhibition in vivo at 4.58 mg/kg [9],ED50 [10],inhibition in vivo at 14.58 mg/kg [11],inhibition in vivo at 4.58 mg/kg [12],further results
CC(C)(C)NCC(O)COc1ncns1 (configuration not stated),1%,70%,5.7 mg/kg,13.5%,3%,49.5%,97.5%,23.5%,91%,0.4 mg/kg,76.5%,50%,–
CC(C)(C)NCC(O)COc1nnnn1-c1ccccc1 (configuration not stated),21.2%,32.5%,1.5 mg/kg,44.8%,6.7%,10.5%,91%,5.7%,63%,3 mg/kg,98.7%,76.2%,–
CC(C)NCC(O)COc1cc(Cl)nc(-c2ccccc2)n1 (configuration not stated),16.5%,18%,> 14.6 mg/kg,10.3%,5%,6%,49%,3%,16.7%,> 14.6 mg/kg,19%,21%,–
Cc1nsc(OCC(O)CNC(C)(C)C)n1 (configuration not stated),12.8%,39.5%,3.5 mg/kg,35.5%,7.7%,24.2%,92.3%,15%,59.8%,3.6 mg/kg,85.3%,55.5%,–
CC(C)NCC(O)COc1cccc2ccccc12 (configuration not stated) [PROPRANOLOL],–,–,0.06 mg/kg,–,–,–,–,–,–,0.09 mg/kg,–,–,inhibition in vivo at 0.45 mg/kg [13]: 85.2%; inhibition in vivo at 4.61 mg/kg [14]: 96.6%; inhibition in vivo at 0.13 mg/kg [15]: 62%; inhibition in vivo at 4.61 mg/kg [16]: 98.4%; inhibition in vivo at 0.45 mg/kg [17]: 80.8%; inhibition in vivo at 1.45 mg/kg [18]: 90.7%; inhibition in vivo at 0.13 mg/kg [19]: 63.5%; inhibition in vivo at 0.03 mg/kg [20]: 40.5%; inhibition in vivo at 1.45 mg/kg [21]: 95.8%; inhibition in vivo at 0.03 mg/kg [22]: 24.7%
CC(C)(C)NCC(O)COc1nc(-c2ccccc2)ns1 (configuration not stated),5.3%,9.5%,4.9 mg/kg,16.5%,3.7%,5.7%,68%,7%,23.8%,19.3 mg/kg,100%,41.5%,–
